Experimental data as given in ChEMBL document CHEMBL4725300, “Structure optimization of positive allosteric modulators of GABA receptors led to the unexpected discovery of antagonists/potential negative allosteric modulators” (Bioorg Med Chem Lett, 2020).

Tests used:
Assay type in all cases: cell membranes
Rattus norvegicus [1] = species on record: Rattus norvegicus; assay: Negative allosteric modulation of GABAB receptor in Sprague-Dawley rat brain cortex membrane assessed as decrease in [35S]GTPgammaS binding at 2.5 uM incubated for 30 mins relative to control; design: scale not given: the % may be the effect or the level left; conditions: Cerebral cortex, filed as negative allosteric modulator
Rattus norvegicus [2] = species on record: Rattus norvegicus; assay: Antagonist activity at GABAB receptor in Sprague-Dawley rat brain cortex membrane assessed as decrease in 10 uM GABA-stimulated [35S]GTPgammaS binding at 25 uM incubated for 30 mins relative to GABA; design: scale not given: the % may be the effect or the level left; conditions: Cerebral cortex, filed as antagonist
Rattus norvegicus [3] = species on record: Rattus norvegicus; assay: Negative allosteric modulation of GABAB receptor in Sprague-Dawley rat brain cortex membrane assessed as decrease in [35S]GTPgammaS binding at 25 uM incubated for 30 mins relative to control; design: scale not given: the % may be the effect or the level left; conditions: Cerebral cortex, filed as negative allosteric modulator
Rattus norvegicus [4] = species on record: Rattus norvegicus; assay: Antagonist activity at GABAB receptor in Sprague-Dawley rat brain cortex membrane assessed as decrease in 10 uM GABA-stimulated [35S]GTPgammaS binding at 2.5 uM incubated for 30 mins relative to GABA; design: scale not given: the % may be the effect or the level left; conditions: Cerebral cortex, filed as antagonist
Rattus norvegicus [5] = species on record: Rattus norvegicus; assay: Negative allosteric modulation of GABAB receptor in Sprague-Dawley rat brain cortex membrane assessed as decrease in [35S]GTPgammaS binding for 30 mins; conditions: Cerebral cortex, filed as negative allosteric modulator
Rattus norvegicus [6] = species on record: Rattus norvegicus; assay: Agonist activity at GABAB receptor in Sprague-Dawley rat brain cortex membrane assessed as decrease in 10 uM GABA-stimulated [35S]GTPgammaS binding at 25 uM incubated for 30 mins; design: scale not given: the % may be the effect or the level left; conditions: Cerebral cortex, filed as agonist
Rattus norvegicus [7] = species on record: Rattus norvegicus; assay: Agonist activity at GABAB receptor in Sprague-Dawley rat brain cortex membrane assessed as decrease in 10 uM GABA-stimulated [35S]GTPgammaS binding at 2.5 uM incubated for 30 mins; design: scale not given: the % may be the effect or the level left; conditions: Cerebral cortex, filed as agonist
Rattus norvegicus [8] = species on record: Rattus norvegicus; assay: Antagonist activity at GABAB receptor in Sprague-Dawley rat brain cortex membrane assessed as decrease in 10 uM GABA-stimulated [35S]GTPgammaS binding incubated for 30 mins; conditions: Cerebral cortex, filed as antagonist

SMILES: Cc1c(O)nc(-c2ccccc2)n(Cc2ccccc2)c1=O
- Activity (Rattus norvegicus [1]): 3.3%
- Activity (Rattus norvegicus [2]): 6.2%
- Activity (Rattus norvegicus [3]): 8.3%
- Activity (Rattus norvegicus [4]): 5.7%

SMILES: O=c1cc(-c2ccccc2)nc(Sc2ccccc2)[nH]1
- Activity (Rattus norvegicus [1]): 3.3%
- Activity (Rattus norvegicus [2]): 6.1%
- Activity (Rattus norvegicus [3]): 7.3%
- Activity (Rattus norvegicus [5]): Dose-dependent effect
- Activity (Rattus norvegicus [4]): 4.7%

SMILES: CC(C)c1ccc2c(c1)c(O)c(C(C)C)c(=O)n2CC(C)(C)C
- Activity (Rattus norvegicus [1]): 3.2%
- Activity (Rattus norvegicus [3]): 13.8%
- Activity (Rattus norvegicus [5]): Dose-dependent effect
- Activity (Rattus norvegicus [6]): 2.6%
- Activity (Rattus norvegicus [4]): 2%

SMILES: CSc1ncc(-c2nnc(C)o2)c(NC2CCCC2)n1
- Activity (Rattus norvegicus [1]): 25.3%
- Activity (Rattus norvegicus [2]): 19%
- Activity (Rattus norvegicus [3]): 37.7%
- Activity (Rattus norvegicus [5]): Dose-dependent effect
- Activity (Rattus norvegicus [4]): 17.1%

SMILES: Cn1c(Sc2ccc(Cl)cc2)nc(-c2ccc(C(C)(C)C)cc2)cc1=O
- Activity (Rattus norvegicus [1]): 4%
- Activity (Rattus norvegicus [2]): 3.1%
- Activity (Rattus norvegicus [3]): 9.7%
- Activity (Rattus norvegicus [5]): Dose-dependent effect
- Activity (Rattus norvegicus [4]): 8.2%

SMILES: CC(C)c1c(O)c2cc(C(C)(C)C)ccc2n(CC(C)(C)C)c1=O
- Activity (Rattus norvegicus [7]): 1.7%
- Activity (Rattus norvegicus [1]): 2%
- Activity (Rattus norvegicus [2]): 6.3%
- Activity (Rattus norvegicus [3]): 22.7%
- Activity (Rattus norvegicus [5]): Dose-dependent effect

SMILES: CCCCCn1c(=O)c(C(C)C)c(O)c2cc(C(C)C)ccc21
- Activity (Rattus norvegicus [1]): 9%
- Activity (Rattus norvegicus [8]): Dose-dependent effect
- Activity (Rattus norvegicus [2]): 24.4%
- Activity (Rattus norvegicus [3]): 37.7%
- Activity (Rattus norvegicus [5]): Dose-dependent effect
- Activity (Rattus norvegicus [4]): 7%

SMILES: O=c1cc(-c2ccccc2)nc(Sc2ccc(Cl)cc2)[nH]1
- Activity (Rattus norvegicus [1]): 8.7%
- Activity (Rattus norvegicus [2]): 7.4%
- Activity (Rattus norvegicus [3]): 14.7%
- Activity (Rattus norvegicus [5]): Dose-dependent effect
- Activity (Rattus norvegicus [4]): 4.9%

SMILES: Cc1c(O)c2cc(C(C)(C)C)ccc2n(CC(C)C)c1=O
- Activity (Rattus norvegicus [1]): 13.5%
- Activity (Rattus norvegicus [8]): Dose-dependent effect
- Activity (Rattus norvegicus [2]): 23.6%
- Activity (Rattus norvegicus [3]): 32.5%
- Activity (Rattus norvegicus [5]): Dose-dependent effect
- Activity (Rattus norvegicus [4]): 8.4%

SMILES: CC(C)c1c(O)nc(-c2ccccc2)n(Cc2ccccc2)c1=O
- Activity (Rattus norvegicus [1]): 2.3%
- Activity (Rattus norvegicus [2]): 8%
- Activity (Rattus norvegicus [3]): 13%
- Activity (Rattus norvegicus [4]): 5.2%

SMILES: CC(C)Cn1c(=O)c(C(C)C)c(O)c2cc(C(C)(C)C)ccc21
- Activity (Rattus norvegicus [1]): 23%
- Activity (Rattus norvegicus [8]): Dose-dependent effect
- Activity (Rattus norvegicus [2]): 36.2%
- Activity (Rattus norvegicus [3]): 50.7%
- Activity (Rattus norvegicus [5]): Dose-dependent effect
- Activity (Rattus norvegicus [4]): 15.3%

SMILES: CC(C)Cn1c(=O)c(C(C)C)c(O)c2cc(C(C)C)ccc21
- Activity (Rattus norvegicus [1]): 8.7%
- Activity (Rattus norvegicus [8]): Dose-dependent effect
- Activity (Rattus norvegicus [2]): 41.5%
- Activity (Rattus norvegicus [3]): 41.5%
- Activity (Rattus norvegicus [5]): Dose-dependent effect
- Activity (Rattus norvegicus [4]): 13.5%

SMILES: CCCn1c(=O)c(C)c(O)c2cc(OC)ccc21
- Activity (Rattus norvegicus [1]): 5%
- Activity (Rattus norvegicus [2]): 7.4%
- Activity (Rattus norvegicus [3]): 10.5%
- Activity (Rattus norvegicus [5]): Dose-dependent effect
- Activity (Rattus norvegicus [4]): 4.3%

SMILES: CCOC(=O)c1cnc(SC)nc1NC1CCCC1
- Activity (Rattus norvegicus [1]): 25%
- Activity (Rattus norvegicus [2]): 5.7%
- Activity (Rattus norvegicus [3]): 29.3%
- Activity (Rattus norvegicus [5]): Dose-dependent effect
- Activity (Rattus norvegicus [4]): 10.3%

SMILES: Cn1c(Sc2ccccc2)nc(-c2ccccc2)cc1=O
- Activity (Rattus norvegicus [1]): 4.7%
- Activity (Rattus norvegicus [2]): 4.7%
- Activity (Rattus norvegicus [3]): 9.7%
- Activity (Rattus norvegicus [5]): Dose-dependent effect
- Activity (Rattus norvegicus [4]): 1.6%

SMILES: CSc1ncc(-c2nc(C)no2)c(NC2CCCC2)n1
- Activity (Rattus norvegicus [1]): 19%
- Activity (Rattus norvegicus [8]): Dose-dependent effect
- Activity (Rattus norvegicus [2]): 19%
- Activity (Rattus norvegicus [3]): 33.3%
- Activity (Rattus norvegicus [5]): Dose-dependent effect
- Activity (Rattus norvegicus [4]): 10.3%

SMILES: CCOC(=O)c1cnc(-n2nc(C)cc2C)nc1NC1CCCC1
- Activity (Rattus norvegicus [1]): 18.3%
- Activity (Rattus norvegicus [8]): Dose-dependent effect
- Activity (Rattus norvegicus [2]): 40.8%
- Activity (Rattus norvegicus [3]): 44.7%
- Activity (Rattus norvegicus [5]): Dose-dependent effect
- Activity (Rattus norvegicus [4]): 14.4%

SMILES: Cn1c(Sc2ccc(Cl)cc2)nc(-c2ccccc2)cc1=O
- Activity (Rattus norvegicus [1]): 12.2%
- Activity (Rattus norvegicus [8]): Dose-dependent effect
- Activity (Rattus norvegicus [2]): 34.1%
- Activity (Rattus norvegicus [3]): 34.7%
- Activity (Rattus norvegicus [5]): Dose-dependent effect
- Activity (Rattus norvegicus [4]): 10.9%

SMILES: O=c1cc(O)nc(-c2ccccc2)n1Cc1ccccc1
- Activity (Rattus norvegicus [1]): 2.4%
- Activity (Rattus norvegicus [2]): 12.4%
- Activity (Rattus norvegicus [3]): 14%
- Activity (Rattus norvegicus [4]): 0.9%
